The record followed here is PubChem BioAssay (NCI).

Assay in all cases: inhibition of tumour cell growth, NCI panel, 48 h
Test [1] has as its system HL-60(TB) leukemia.
Test [2] concerns PC-3 prostate.
Test [3] has as its system MOLT-4 leukemia.
For test [4], the system named is CCRF-CEM leukemia.
Test [5] concerns HT29 colon.
In test [6] the test system is SF-268 CNS.
In test [7] the test system is M14 melanoma.
Test [8] has as its system OVCAR-5 ovarian.
The subject of test [9] is COLO 205 colon.
Test [10] relates to A498 renal.

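Dose response: 5 concentrations. Exposure: 48 h. Format: 96-well plates. Endpoint: linear interpolation; highest concentration if not reached. Abbreviation: GI50, concentration required for 50% inhibition of growth. TGI: total growth inhibition.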

For the compound `O=C1/C(=C/c2ccccc2)SC(=Nc2ccccc2)N1Nc1ccccc1`, the GI50 in test [1] was 10.4 µM; in [2], 4.49 µM; in test [3], 5.14 µM; in test [4], 4.07 µM; in test [5], 10.8 µM; in test [6], 31.3 µM. In addition, the GI50 was 12.3 µM in test [7], 34.1 µM in test [8] and 20.3 µM in test [9]. Also, the TGI in test [1] was 68.9 µM; in [2] it was over 100 µM; in test [3] it was over 100 µM; in test [4], over 100 µM; in test [5], over 100 µM; in test [6] it was over 100 µM. Besides, the TGI in [7] was 42.8 µM; in [8], over 100 µM; in [9], over 100 µM.

Regarding `C=C1C(=O)O[C@H]2[C@H]1CC/C(COC(=O)C(=O)c1c[nH]c3ccc(OC)cc13)=C\CC[C@@]1(C)O[C@@H]21`, the GI50 in test [1] was 5.13 µM; in test [2] it was 6.08 µM; in [3] it was 5.31 µM; in test [4], 2.47 µM; in [5] it was 2.65 µM; in [6], 6.75 µM. The GI50 was 5.18 µM in test [7] and 7.11 µM in [8]. Moreover, the TGI was 12.5 µM in [1]; 11.1 µM in test [2]; 16 µM in test [3]; 23 µM in test [4]; 6.35 µM in test [5]; 13 µM in test [6]. For the same compound, the TGI in test [7] is 10.4 µM; in [8] it was 14.1 µM; in test [9] it was over 20.6 µM.

On to `N#C/C(=C/C=C(\Cl)c1ccc(Cl)cc1)C(N)=O`, for which the GI50 in test [2] was 2.18 µM; in test [3], 0.66 µM; in test [4], 2.81 µM; in test [5] it was 3.38 µM; in [6], 3.46 µM; in [7], 1.94 µM. Moreover, the GI50 in [8] is 4.51 µM; in test [9] it was 5.24 µM; in test [10] it was 13.2 µM. Also, the TGI in test [2] is 5.55 µM; in test [3], over 39.8 µM; in [4] it was over 100 µM; in test [5] it was over 36.5 µM; in test [6], 13.6 µM; in test [7] it was 9.84 µM. Moreover, the TGI in test [8] is 17.7 µM; in [9], over 55.8 µM; in test [10] it was 27.7 µM.

For `O=C(Nc1cnn2ccc(N3CCC[C@@H]3c3cc(F)ccc3F)nc12)N1CC[C@H](O)C1`, the GI50 in test [1], in test [2], in test [3], in [5], in test [6] and in [7] was over 100 µM throughout. For the same compound, the GI50 in test [8], in [9] and in test [10] was over 100 µM in each case. In addition, the TGI in [1], in [2], in [3], in test [5], in test [6] and in test [7] was over 100 µM each time. The TGI in [8], in test [9] and in test [10] was over 100 µM each time.

Regarding `C=C(CNCCc1ccc(O)cc1)[C@@H]1CC[C@]2(CO)CC[C@]3(C)[C@H](CC[C@@H]4[C@@]5(C)CCC(=O)C(C)(C)[C@@H]5CC[C@]43C)[C@@H]12`, the GI50 in test [2] was 1.32 µM; in [3], 1.96 µM; in test [4], 1.92 µM; in test [5] it was 1.62 µM; in test [7], 1.72 µM; in test [8], 1.59 µM. The GI50 in [9] was 1.73 µM; in [10], 1.38 µM. In addition, the TGI in test [2] came to 2.69 µM; in test [3] it was 4.47 µM; in [4] it was 5.26 µM; in [5], 3.08 µM; in test [7] it was 3.24 µM; in test [8], 3 µM. In addition, the TGI came out at 3.32 µM in [9] and 2.77 µM in [10].

As to `COc1c2ccccc2c(O)c2c(=O)c(C(=O)O)cn(C)c12`, the GI50 in [2], in test [3], in test [4], in test [5], in test [6] and in test [7] was over 100 µM each time. In addition, the GI50 in test [8] was over 100 µM; in test [9], over 100 µM; in test [10] it was 18.8 µM. The TGI in test [2], in [3], in test [4], in test [5], in test [6] and in test [7] was over 100 µM throughout. For the same compound, the TGI in test [8], in test [9] and in test [10] was over 100 µM throughout.

As for `Cc1ccc(N=C2CSc3nnc(-c4csc5c4CCCC5)n3N2)cc1`, the GI50 is 0.12 µM in [1]; 0.27 µM in [2]; 0.213 µM in test [3]; 0.158 µM in [4]; 0.175 µM in test [5]; 0.561 µM in test [6]. Besides, the figures for the GI50 in test [8], in test [9] and in test [10] were 0.932 µM, 0.191 µM and 0.0988 µM, respectively. Besides, the TGI in [1] is 0.298 µM; in [2], over 50 µM; in test [3], over 50 µM; in test [4], over 50 µM; in [5], over 50 µM; in [6], over 50 µM. Also, the figures for the TGI in test [8], in test [9] and in test [10] were over 50 µM, over 50 µM and 0.412 µM, respectively.

On to `CCOP(=O)(CC(=O)C1=C(O)C(CCCNC(=O)OC(C)(C)C)N(Cc2ccc(OC)c(OC)c2)C1=O)OCC` (configuration not stated), for which the TGI in test [1], in test [3], in [4], in test [5], in test [6] and in [7] was over 100 µM each time. For the same compound, the TGI in test [8], in test [9] and in test [10] was over 100 µM in each case.
